Results from patent publication US8946203B2, “Benzodioxane inhibitors of leukotriene production” (Boehringer Ingelheim International GmbH, priority 2012, dated 2015).

Biological target: T1, human LTA4 hydrolase (Homo sapiens, UniProt P09960)
T1 sequence (P09960 1-611): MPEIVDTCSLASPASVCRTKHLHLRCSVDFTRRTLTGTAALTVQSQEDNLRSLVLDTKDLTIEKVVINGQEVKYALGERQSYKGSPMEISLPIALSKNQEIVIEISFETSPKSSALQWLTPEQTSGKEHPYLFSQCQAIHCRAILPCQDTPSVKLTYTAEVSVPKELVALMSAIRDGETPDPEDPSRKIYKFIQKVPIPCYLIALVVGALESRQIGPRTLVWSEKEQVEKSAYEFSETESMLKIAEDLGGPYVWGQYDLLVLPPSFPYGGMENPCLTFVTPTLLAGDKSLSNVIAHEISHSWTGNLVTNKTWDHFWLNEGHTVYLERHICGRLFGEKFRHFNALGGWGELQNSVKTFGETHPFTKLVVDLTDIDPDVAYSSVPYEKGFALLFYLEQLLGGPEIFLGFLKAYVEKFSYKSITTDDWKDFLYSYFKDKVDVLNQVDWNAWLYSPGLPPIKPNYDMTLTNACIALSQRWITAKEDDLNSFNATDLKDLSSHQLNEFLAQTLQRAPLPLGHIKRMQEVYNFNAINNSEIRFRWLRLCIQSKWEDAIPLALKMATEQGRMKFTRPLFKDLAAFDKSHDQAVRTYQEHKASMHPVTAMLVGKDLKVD
Experiment: LTA4H Enzyme assay (cleavage of Arg-AMC, fluorescence)
Assay type: biochemical
Conditions: LTA4H Enzyme 1 nM, Arg-AMC substrate 50 μM, room temperature 1 h, fluorescence; read-out: IC50 values of LTA4H Enzyme assay
How it was run: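 Peptidase activity of human LTA4H (1 nM final) on Arg-AMC (50 μM final), with compound, 1 h at room temperature. Buffer: 50 mM Tris-HCl pH 7.5, 100 mM KCl, 0.5% BSA.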

**Q.** Which IC50 does the source give for `Fc1ccc2c(c1)OC(c1ccc(CN3CCOCC3)cc1)CO2` (centres unmarked) [Example 202, 4-[4-(7-Fluoro-2,3-dihydro-benzo[1,4]dioxin-2-yl)-benzyl]-morpholine] here?
**A.** 23.4 nM

**Q.** With `NC(=O)C1CCCN(Cc2ccc(C3COc4ccccc4O3)cc2)C1` (racemic) [Example 114, 1-[4-(2,3-dihydro-1,4-benzodioxin-2-yl)benzyl]piperidine-3-carboxamide] as the molecule, how does the IC50 read?
**A.** 0.77 nM

**Q.** How did the IC50 turn out when `OC1CCCN(Cc2ccc([C@H]3COc4ccccc4O3)cc2)C1` (stereo partly drawn) [Example 78, 1-{4-[(2S)-2,3-dihydro-1,4-benzodioxin-2-yl]benzyl}piperidin-3-ol] was run?
**A.** 1.4 nM

**Q.** How did the IC50 turn out when `NC(=O)C1CCN(Cc2ccc([C@@H]3COc4cccnc4O3)cc2)CC1` [Example 207, 1-{4-[(3R)-2,3-dihydro[1,4]dioxino[2,3-b]pyridin-3-yl]benzyl}piperidine-4-carboxamide] was run?
**A.** 0.86 nM

**Q.** With `O=C1CCC2(CCN(Cc3ccc([C@H]4COc5ccccc5O4)cc3)C2)N1` (stereo partly drawn) [Example 117, 7-{4-[(2S)-2,3-dihydro-1,4-benzodioxin-2-yl]benzyl}-1,7-diazaspiro[4.4]nonan-2-one] as the molecule, how does the IC50 read?
**A.** 0.23 nM

**Q.** Which IC50 does the source give for `Fc1ccc2c(c1)OC(c1ccc(CN3CCCC3)cc1)CO2` (centres unmarked) [Example 203, 1-[4-(7-Fluoro-2,3-dihydro-benzo[1,4]dioxin-2-yl)-benzyl]-pyrrolidine] here?
**A.** 2.94 nM

**Q.** Which IC50 does the source give for `O=C(NCCO)C1CCN(Cc2ccc([C@H]3COc4cccnc4O3)cc2)CC1` [Example 154, 1-{4-[(3S)-2,3-dihydro[1,4]dioxino[2,3-b]pyridin-3-yl]benzyl}-N-(2-hydroxyethyl)piperidine-4-carboxamide] here?
**A.** 0.2 nM

**Q.** For `O=C1CCCN1CC1CCN(Cc2ccc(C3COc4ccccc4O3)cc2)CC1` (racemic) [Example 50, 1-({1-[4-(2,3-dihydro-1,4-benzodioxin-2-yl)benzyl]piperidin-4-yl}methyl)pyrrolidin-2-one], which IC50 is on record?
**A.** 0.6 nM

**Q.** With `CN(C)Cc1ccc([C@H]2COc3ccccc3O2)cc1` [Example 75, 1-{4-[(2S)-2,3-dihydro-1,4-benzodioxin-2-yl]phenyl}-N,N-dimethylmethanamine] as the molecule, how does the IC50 read?
**A.** 4.51 nM

**Q.** With `COCC(=O)N1CCCC12CCN(Cc1ccc([C@H]3COc4ccccc4O3)cc1)C2` (stereo partly drawn) [Example 128, 1-(7-{4-[(2S)-2,3-dihydro-1,4-benzodioxin-2-yl]benzyl}-1,7-diazaspiro[4.4]non-1-yl)-2-methoxyethanone] as the molecule, how does the IC50 read?
**A.** 0.65 nM

**Q.** How did the IC50 turn out when `OCCN(Cc1ccc([C@H]2COc3ccccc3O2)cc1)C1CCCCC1` [Example 80, 2-(cyclohexyl{4-[(2S)-2,3-dihydro-1,4-benzodioxin-2-yl]benzyl}amino)ethanol] was run?
**A.** 0.71 nM

**Q.** For `CN1CCCN(Cc2ccc(C3COc4ccccc4O3)cc2)CC1` (racemic) [Example 30, 1-[4-(2,3-dihydro-1,4-benzodioxin-2-yl)benzyl]-4-methyl-1,4-diazepane], which IC50 is on record?
**A.** 1.77 nM

**Q.** How did the IC50 turn out when `COCC(C)NCc1ccc([C@H]2COc3ccccc3O2)cc1` (stereo partly drawn) [Example 72, N-{4-[(2S)-2,3-dihydro-1,4-benzodioxin-2-yl]benzyl}-1-methoxypropan-2-amine] was run?
**A.** 1.8 nM

**Q.** Which IC50 does the source give for `O=C1CCCCN1C1CCN(Cc2ccc([C@H]3COc4ccccc4O3)cc2)CC1` [Example 94, 1′-{4-[(2S)-2,3-dihydro-1,4-benzodioxin-2-yl]benzyl}-1,4′-bipiperidin-2-one] here?
**A.** 0.45 nM

**Q.** For `CC(C)NCc1ccc([C@H]2COc3ccccc3O2)cc1` [Example 71, N-{4-[(2S)-2,3-dihydro-1,4-benzodioxin-2-yl]benzyl}propan-2-amine], which IC50 is on record?
**A.** 1.88 nM

**Q.** `c1cnc2c(c1)OC[C@H](c1ccc(CNC3CCCC3)cc1)O2` [Example 135, N-{4-[(3S)-2,3-dihydro[1,4]dioxino[2,3-b]pyridin-3-yl]benzyl}cyclopentanamine] was tested. Which IC50 did it give?
**A.** 0.47 nM

**Q.** For `c1ccc2c(c1)OCC(c1ccc(CNCC3CC3)cc1)O2` (racemic) [Example 43, 1-cyclopropyl-N-[4-(2,3-dihydro-1,4-benzodioxin-2-yl)benzyl]methanamine], which IC50 is on record?
**A.** 4.42 nM

**Q.** For `c1ccc2c(c1)OC[C@H](c1ccc(CNC3CCCOC3)cc1)O2` (stereo partly drawn) [Example 103, N-{4-[(2S)-2,3-dihydro-1,4-benzodioxin-2-yl]benzyl}tetrahydro-2H-pyran-3-amine], which IC50 is on record?
**A.** 2.4 nM

**Q.** For `F[C@H]1CCN(Cc2ccc(C3COc4ccccc4O3)cc2)C1` (mixture of isomers) [Example 115, (3S)-1-[4-(2,3-dihydro-1,4-benzodioxin-2-yl)benzyl]-3-fluoropyrrolidine], which IC50 is on record?
**A.** 3.03 nM

**Q.** How did the IC50 turn out when `O=C(O)C1CCCN(Cc2ccc(C3COc4ccccc4O3)cc2)C1` (racemic) [Example 113, 1-[4-(2,3-dihydro-1,4-benzodioxin-2-yl)benzyl]piperidine-3-carboxylic acid] was run?
**A.** 2.49 nM

**Q.** With `O=C1NCCC12CCN(Cc1ccc([C@@H]3COc4ccccc4O3)cc1)CC2` (single isomer, unassigned) [Example 195] as the molecule, how does the IC50 read?
**A.** 1.59 nM

**Q.** For `CC(=O)N1CCCN(Cc2ccc([C@H]3COc4cccnc4O3)cc2)CC1` [Example 148, 1-(4-{4-[(3S)-2,3-dihydro[1,4]dihydro[2,3-b]pyridin-3-yl]benzyl}-1,4-diazepan-1-yl)ethanone], which IC50 is on record?
**A.** 0.28 nM

**Q.** With `CN(C)CCN(Cc1ccc([C@H]2COc3ccccc3O2)cc1)C1CCCCC1` [Example 104, N-cyclohexyl-N-{4-[(2S)-2,3-dihydro-1,4-benzodioxin-2-yl]benzyl}-N′,N′-dimethylethane-1,2-diamine] as the molecule, how does the IC50 read?
**A.** 0.18 nM

**Q.** `NC(=O)[C@H]1CCCC[C@H]1NCc1ccc([C@H]2COc3ccccc3O2)cc1` [Example 86, (1S,2R)-2-({4-[(2S)-2,3-dihydro-1,4-benzodioxin-2-yl]benzyl}amino)cyclohexane-carboxamide] was tested. Which IC50 did it give?
**A.** 0.92 nM

**Q.** How did the IC50 turn out when `O=C(O)CCCC1CCN(Cc2ccc([C@H]3COc4cccnc4O3)cc2)CC1` [Example 151, 4-(1-{4-[(3S)-2,3-dihydro[1,4]dioxino[2,3-b]pyridin-3-yl]benzyl}piperidin-4-yl)butanoic acid] was run?
**A.** 0.1 nM

**Q.** How did the IC50 turn out when `CCN(C)Cc1ccc([C@H]2COc3ccccc3O2)cc1` [Example 74, N-{4-[(2S)-2,3-dihydro-1,4-benzodioxin-2-yl]benzyl}-N-methylethanamine] was run?
**A.** 1 nM

**Q.** `c1ccc2c(c1)OC[C@H](c1ccc(CN3CCOCC3)cc1)O2` (single isomer, unassigned) [Example 198] was tested. Which IC50 did it give?
**A.** 2.28 nM

**Q.** How did the IC50 turn out when `O=C(O)[C@H]1CC[C@@H](NCc2ccc([C@H]3COc4ccccc4O3)cc2)C1` [Example 191, (1S,3R)-3-({4-[(2S)-2,3-dihydro-1,4-benzodioxin-2-yl]benzyl}amino)cyclopentane-carboxylic acid] was run?
**A.** 1.62 nM

**Q.** `COC1CN(Cc2ccc(C3COc4ccccc4O3)cc2)C1` (racemic) [Example 36, 1-[4-(2,3-dihydro-1,4-benzodioxin-2-yl)benzyl]-3-methoxyazetidine] was tested. Which IC50 did it give?
**A.** 4.45 nM

**Q.** How did the IC50 turn out when `CS(=O)(=O)C1CCN(Cc2ccc([C@H]3COc4cccnc4O3)cc2)CC1` [Example 172, (3S)-3-(4-{[4-(methylsulfonyl)piperidin-1-yl]methyl}phenyl)-2,3-dihydro[1,4]dioxin[2,3-b]pyridine] was run?
**A.** 0.53 nM

**Q.** Which IC50 does the source give for `N#CCN1CCCC12CCN(Cc1ccc([C@H]3COc4ccccc4O3)cc1)C2` (stereo partly drawn) [Example 124, (7-{4-[(2S)-2,3-dihydro-1,4-benzodioxin-2-yl]benzyl}-1,7-diazaspiro[4.4]non-1-yl)acetonitrile] here?
**A.** 2.45 nM

**Q.** Which IC50 does the source give for `OC(C1CCN(Cc2ccc([C@H]3COc4ccccc4O3)cc2)CC1)(C(F)(F)F)C(F)(F)F` [Example 22, 2-(1-{4-[(2S)-2,3-dihydro-1,4-benzodioxin-2-yl]benzyl}piperidin-4-yl)-1,1,1,3,3,3-hexafluoropropan-2-ol] here?
**A.** 200 nM

**Q.** How did the IC50 turn out when `CC(C)(O)C1CCN(Cc2ccc(C3COc4ccccc4O3)cc2)CC1` (racemic) [Example 28, 2-{1-[4-(2,3-dihydro-1,4-benzodioxin-2-yl)benzyl]piperidin-4-yl}propan-2-ol] was run?
**A.** 3.4 nM

**Q.** With `O=C1NC(=O)C2(CCN(Cc3ccc([C@H]4COc5cccnc5O4)cc3)CC2)N1` [Example 165, 8-{4-[(3S)-2,3-dihydro[1,4]dioxin[2,3-b]pyridin-3-yl]benzyl}-1,3,8-triazaspiro[4.5]decane-2,4-dione] as the molecule, how does the IC50 read?
**A.** 0.13 nM

**Q.** Which IC50 does the source give for `FC1CCN(Cc2ccc(C3COc4ccccc4O3)cc2)CC1` (racemic) [Example 5, 1-[4-(2,3-dihydro-1,4-benzodioxin-2-yl)benzyl]-4-fluoropiperidine] here?
**A.** 2.96 nM

**Q.** With `CC(c1ccc([C@H]2COc3ccccc3O2)cc1)N1CCCC1` (stereo partly drawn) [Example 225, 1-{1-[(S)-4-(2,3-dihydro-benzo[1,4]dioxin-2-yl)-phenyl]-ethyl}-pyrrolidine] as the molecule, how does the IC50 read?
**A.** 5.3 nM

**Q.** For `NC(=O)N1CCCC12CCN(Cc1ccc([C@H]3COc4ccccc4O3)cc1)C2` (stereo partly drawn) [Example 119, 7-{4-[(2S)-2,3-dihydro-1,4-benzodioxin-2-yl]benzyl}-1,7-diazaspiro[4.4]nonane-1-carboxamide], which IC50 is on record?
**A.** 0.1 nM

**Q.** With `CN1CCC2(CCN(Cc3ccc([C@H]4COc5cccnc5O4)cc3)CC2)C1=O` [Example 129, 8-{4-[(3S)-2,3-dihydro[1,4]dioxino[2,3-b]pyridin-3-yl]benzyl}-2-methyl-2,8-diazaspiro[4.5]decan-1-one] as the molecule, how does the IC50 read?
**A.** 0.23 nM
